Experimental data from ChEMBL document CHEMBL4308841, “Synthesis, in vitro antiproliferative activity, and kinase inhibitory effects of pyrazole-containing diarylureas and diarylamides” (Eur J Med Chem, 2018).

Tests used:
[1] = tested on: COLO 205; assay: Growth inhibition of human COLO205 cells incubated for 48 hrs by sulforhodamine B assay; assay type: functional, cell-based; details: COLO 205, 48 h
[2] = tested on: MDA-MB-231; assay: Growth inhibition of human MDA-MB-231 cells assessed as cell growth at 100 uM incubated for 48 hrs by sulforhodamine B assay relative to control; assay type: functional; details: MDA-MB-231, 48 h, read-out: Activity
[3] = tested on: SK-MEL-28; assay: Growth inhibition of human SK-MEL-28 cells assessed as cell growth at 100 uM incubated for 48 hrs by sulforhodamine B assay relative to control; assay type: functional; details: SK-MEL-28, 48 h, read-out: Activity
[4] = tested on: T47D; assay: Growth inhibition of human T47D cells incubated for 48 hrs by sulforhodamine B assay; assay type: functional, cell-based
[5] = tested on: 786-0; assay: Growth inhibition of human 786-0 cells assessed as cell growth at 100 uM incubated for 48 hrs by sulforhodamine B assay relative to control; assay type: functional; details: 786-0, 48 h, read-out: Activity
[6] = tested on: Hs-578T; assay: Growth inhibition of human Hs578T cells incubated for 48 hrs by sulforhodamine B assay; assay type: functional, cell-based
[7] = tested on: A549; assay: Growth inhibition of human A549/ATCC cells assessed as cell growth at 0.1 uM incubated for 48 hrs by sulforhodamine B assay relative to control; assay type: functional; details: A549, 48 h, read-out: Activity
[8] = tested on: LOX IMVI; assay: Growth inhibition of human LOXIMVI cells assessed as cell growth at 0.01 uM incubated for 48 hrs by sulforhodamine B assay relative to control; assay type: functional; details: read-out: Activity
[9] = tested on: SN12C; assay: Growth inhibition of human SN12C cells incubated for 48 hrs by sulforhodamine B assay; assay type: functional, cell-based
[10] = tested on: UO-31; assay: Growth inhibition of human UO31 cells assessed as cell growth at 100 uM incubated for 48 hrs by sulforhodamine B assay relative to control; assay type: functional; details: UO-31, 48 h, read-out: Activity
[11] = tested on: MDA-MB-231; assay: Growth inhibition of human MDA-MB-231 cells assessed as cell growth at 0.1 uM incubated for 48 hrs by sulforhodamine B assay relative to control; assay type: functional; details: MDA-MB-231, 48 h, read-out: Activity
[12] = tested on: UACC-257; assay: Growth inhibition of human UACC257 cells assessed as cell growth at 0.01 uM incubated for 48 hrs by sulforhodamine B assay relative to control; assay type: functional; details: UACC-257, 48 h, read-out: Activity
[13] = tested on: OVCAR-5; assay: Growth inhibition of human OVCAR5 cells assessed as cell growth at 100 uM incubated for 48 hrs by sulforhodamine B assay relative to control; assay type: functional; details: OVCAR-5, 48 h, read-out: Activity
[14] = tested on: SF-268; assay: Growth inhibition of human SF268 cells assessed as cell growth at 0.01 uM incubated for 48 hrs by sulforhodamine B assay relative to control; assay type: functional; details: SF-268, 48 h, read-out: Activity
[15] = tested on: Hs-578T; assay: Growth inhibition of human Hs578T cells assessed as cell growth at 100 uM incubated for 48 hrs by sulforhodamine B assay relative to control; assay type: functional; details: read-out: Activity
[16] = tested on: PC-3; assay: Growth inhibition of human PC3 cells assessed as cell growth at 1 uM incubated for 48 hrs by sulforhodamine B assay relative to control; assay type: functional; details: PC-3, 48 h, read-out: Activity
[17] = tested on: ACHN; assay: Growth inhibition of human ACHN cells assessed as cell growth at 0.1 uM incubated for 48 hrs by sulforhodamine B assay relative to control; assay type: functional; details: read-out: Activity
[18] = tested on: OVCAR-3; assay: Growth inhibition of human OVCAR3 cells assessed as cell growth at 100 uM incubated for 48 hrs by sulforhodamine B assay relative to control; assay type: functional; details: OVCAR-3, 48 h, read-out: Activity
[19] = tested on: BT-549; assay: Growth inhibition of human BT549 cells assessed as cell growth at 0.1 uM incubated for 48 hrs by sulforhodamine B assay relative to control; assay type: functional; details: BT-549, 48 h, read-out: Activity
[20] = tested on: A498; assay: Growth inhibition of human A498 cells assessed as cell growth at 0.01 uM incubated for 48 hrs by sulforhodamine B assay relative to control; assay type: functional; details: A498, 48 h, read-out: Activity
[21] = tested on: IGROV-1; assay: Growth inhibition of human IGROV1 cells assessed as cell growth at 100 uM incubated for 48 hrs by sulforhodamine B assay relative to control; assay type: functional; details: IGROV-1, 48 h, read-out: Activity
[22] = tested on: SK-MEL-2; assay: Growth inhibition of human SK-MEL-2 cells assessed as cell growth at 0.01 uM incubated for 48 hrs by sulforhodamine B assay relative to control; assay type: functional; details: SK-MEL-2, 48 h, read-out: Activity
[23] = tested on: SF-539; assay: Growth inhibition of human SF539 cells assessed as cell growth at 100 uM incubated for 48 hrs by sulforhodamine B assay relative to control; assay type: functional; details: SF-539, 48 h, read-out: Activity
[24] = tested on: SR; assay: Growth inhibition of human SR cells assessed as cell growth at 0.01 uM incubated for 48 hrs by sulforhodamine B assay relative to control; assay type: functional; details: read-out: Activity
[25] = tested on: RXF 393; assay: Growth inhibition of human RXF393 cells assessed as cell growth at 0.01 uM incubated for 48 hrs by sulforhodamine B assay relative to control; assay type: functional; details: RXF 393, 48 h, read-out: Activity
[26] = tested on: SF-295; assay: Growth inhibition of human SF295 cells assessed as cell growth at 0.01 uM incubated for 48 hrs by sulforhodamine B assay relative to control; assay type: functional; details: SF-295, 48 h, read-out: Activity
[27] = tested on: CCRF-CEM; assay: Growth inhibition of human CCRF-CEM cells assessed as cell growth at 0.01 uM incubated for 48 hrs by sulforhodamine B assay relative to control; assay type: functional; details: read-out: Activity
[28] = tested on: OVCAR-3; assay: Growth inhibition of human OVCAR3 cells assessed as cell growth at 1 uM incubated for 48 hrs by sulforhodamine B assay relative to control; assay type: functional; details: OVCAR-3, 48 h, read-out: Activity
[29] = tested on: COLO 205; assay: Growth inhibition of human COLO205 cells assessed as cell growth at 100 uM incubated for 48 hrs by sulforhodamine B assay relative to control; assay type: functional; details: COLO 205, 48 h, read-out: Activity
[30] = tested on: SK-MEL-2; assay: Growth inhibition of human SK-MEL-2 cells assessed as cell growth at 10 uM incubated for 48 hrs by sulforhodamine B assay relative to control; assay type: functional; details: SK-MEL-2, 48 h, read-out: Activity
[31] = tested on: T47D; assay: Growth inhibition of human T47D cells assessed as cell growth at 100 uM incubated for 48 hrs by sulforhodamine B assay relative to control; assay type: functional; details: read-out: Activity
[32] = tested on: Malme-3M; assay: Growth inhibition of human MALME-3M cells assessed as cell growth at 100 uM incubated for 48 hrs by sulforhodamine B assay relative to control; assay type: functional; details: read-out: Activity
[33] = read-out: LC50 (the source's name)
[34] = read-out: pLC50 (the source's name) (converted)

Work on `O=C(Nc1cccc(-n2cc(-c3ccncc3)c(-c3cc(O)cc(Cl)c3)n2)c1)c1cc(C(F)(F)F)cc(C(F)(F)F)c1` yielded a GI50 ([1]; read-out: GI50) of 2.32 µM, a CC50 [1, 33] of over 100 µM and a TGI ([1]; read-out: TGI) of 57.4 µM. It also gave a GI50 ([1]; read-out: pGI50 (converted)) of 2.34 µM, a CC50 [1, 34] of over 100 µM and a TGI ([1]; read-out: pTGI (converted)) of 5.75 µM. For the same compound, the growth at 100 µM [2] was -84%, the growth at 100 µM [3] was -2% and the GI50 ([4]; read-out: GI50) was 2.99 µM. For the same compound, the CC50 [4, 33] was over 100 µM, the TGI ([4]; read-out: TGI) was 94.6 µM and the GI50 ([4]; read-out: pGI50 (converted)) was 3.02 µM. It also gave a CC50 [4, 34] of over 100 µM, a TGI ([4]; read-out: pTGI (converted)) of 95.5 µM and a growth at 100 µM [5] of -28%. The GI50 ([6]; read-out: GI50) was 6.38 µM, the CC50 [6, 33] was over 100 µM and the TGI ([6]; read-out: TGI) was over 100 µM. It also gave a GI50 ([6]; read-out: pGI50 (converted)) of 6.31 µM, a CC50 [6, 34] of over 100 µM and a TGI ([6]; read-out: pTGI (converted)) of over 100 µM. For the same compound, the growth at 0.1 µM [7] was 95%, the growth at 0.01 µM [8] was 101% and the GI50 ([9]; read-out: GI50) was 4.77 µM. For the same compound, the LC50 ([9]; read-out: LC50) was over 100 µM, the TGI ([9]; read-out: TGI) was over 100 µM and the GI50 ([9]; read-out: pGI50 (converted)) was 4.79 µM. The LC50 ([9]; read-out: pLC50 (converted)) was over 100 µM, the TGI ([9]; read-out: pTGI (converted)) was over 100 µM and the growth at 100 µM [10] was 13%. For the same compound, the growth at 0.1 µM [11] was 94%, the growth at 0.01 µM [12] was 92% and the growth at 100 µM [13] was -32%. The growth at 0.01 µM [14] was 92%, the growth at 100 µM [15] was 34% and the growth at 1 µM [16] was 78%. For the same compound, the growth at 0.1 µM [17] was 98%, the growth at 100 µM [18] was -10% and the growth at 0.1 µM [19] was 103%. The growth at 0.01 µM [20] was 53%, the growth at 100 µM [21] was 22% and the growth at 0.01 µM [22] was 95%. The growth at 100 µM [23] was -13%, the growth at 0.01 µM [24] was 94% and the growth at 0.01 µM [25] was 96%. It also gave a growth at 0.01 µM [26] of 92%, a growth at 0.01 µM [27] of 96% and a growth at 1 µM [28] of 96%. The growth at 100 µM [29] was -7% and the growth at 10 µM [30] was 57.8%.

`COc1cc(Cl)cc(-c2nn(-c3cccc(NC(=O)Nc4cc(C(F)(F)F)cc(C(F)(F)F)c4)c3)cc2-c2ccncc2)c1` was tested, and the growth at 100 µM [31] was -22%, the IC50 [1] was 0.45 µM and the GI50 ([1]; read-out: GI50) was 0.448 µM. It also gave a TGI ([1]; read-out: TGI) of 1.88 µM, a GI50 ([1]; read-out: pGI50 (converted)) of 0.447 µM and a CC50 [1, 34] of 6.92 µM. For the same compound, the TGI ([1]; read-out: pTGI (converted)) was 1.86 µM, the growth at 100 µM [2] was -70% and the growth at 100 µM [3] was -58%. It also gave an IC50 [4] of 0.39 µM, a GI50 ([4]; read-out: GI50) of 0.39 µM and a CC50 [4, 33] of over 100 µM. It also gave a TGI ([4]; read-out: TGI) of 4.16 µM, a GI50 ([4]; read-out: pGI50 (converted)) of 0.389 µM and a CC50 [4, 34] of over 100 µM. It also gave a TGI ([4]; read-out: pTGI (converted)) of 4.17 µM, a growth at 100 µM [5] of -70% and an IC50 [6] of 1.4 µM. The GI50 ([6]; read-out: GI50) was 1.4 µM, the TGI ([6]; read-out: TGI) was 7.26 µM and the GI50 ([6]; read-out: pGI50 (converted)) was 1.45 µM. The CC50 [6, 34] was over 100 µM, the TGI ([6]; read-out: pTGI (converted)) was 7.24 µM and the growth at 0.1 µM [7] was 95%. For the same compound, the IC50 [9] was 0.39 µM, the GI50 ([9]; read-out: GI50) was 0.356 µM and the LC50 ([9]; read-out: LC50) was 0.0295 µM. It also gave a TGI ([9]; read-out: TGI) of 1.98 µM, a GI50 ([9]; read-out: pGI50 (converted)) of 0.389 µM and an LC50 ([9]; read-out: pLC50 (converted)) of 29.5 µM. The TGI ([9]; read-out: pTGI (converted)) was 2 µM, the growth at 100 µM [10] was -82% and the growth at 0.1 µM [11] was 90%. It also gave a growth at 0.01 µM [12] of 96%, a growth at 100 µM [13] of -80% and a growth at 0.01 µM [14] of 97%. It also gave a growth at 100 µM [15] of -25%, a growth at 1 µM [16] of 5% and a growth at 0.1 µM [17] of 99%. The growth at 100 µM [18] was -81%, the growth at 0.1 µM [19] was 89% and the growth at 0.01 µM [20] was 64%. For the same compound, the growth at 100 µM [21] was -42%, the growth at 0.01 µM [22] was 103% and the growth at 100 µM [23] was -73%. For the same compound, the growth at 0.01 µM [24] was 101%, the growth at 0.01 µM [25] was 96% and the growth at 0.01 µM [26] was 95%. It also gave a growth at 0.01 µM [27] of 87%, a growth at 1 µM [28] of 5% and a growth at 100 µM [32] of -39%. It also gave a growth at 100 µM [29] of -68% and a growth at 10 µM [30] of -38.1%.

With `COc1cc(Cl)cc(-c2nn(-c3cccc(NC(=O)c4ccc(Cl)c(Cl)c4)c3)cc2-c2ccncc2)c1` the growth at 10 µM [30] was 78.4%.
